This passage reports LogP results from patent US20190110476A1, “NOVEL ISOTHIAZOLAMIDES, PROCESSES FOR THEIR PREPARATION AND THEIR USE AS FUNGICIDES” (priority 2014, published 2019).

Marks after values point to notes of the source that are not given here.

The nature of the series: Measurement of LogP values by HPLC on reversed phase columns (EEC directive 79/831 Annex V.A8). Type of series: physicochemical. An outline of the steps:
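LogP measured by reversed-phase HPLC following EEC directive 79/831 Annex V.A8. Lambda-max taken from UV spectra at 200–400 nm at chromatographic peak maxima; diastereoisomer values listed separately.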
Take `COc1ccc(CNc2nsc(C(=O)NCc3cccs3)c2Cl)cc1` [I-1241]: the LogP is 3.31[a].

Turning to `COc1ccc(CNc2nsc(C(=O)NCc3ccc(OC(F)(F)F)cc3)c2Cl)cc1` [I-1242], the LogP was 4.15[a].

As to `COc1ccc(CNc2nsc(C(=O)NCc3cccc(Cl)c3C)c2Cl)cc1` [I-1243], the LogP was 4.20[a].

As for `COc1ccc(CNc2nsc(C(=O)NCCCn3ccnc3)c2Cl)cc1` [I-1244], the LogP was 1.36[a].

With `COc1ccc(CNc2nsc(C(=O)NC3CCCCCC3)c2Cl)cc1` [I-1245], the LogP was 4.27[a].

For `COc1ccc(CNc2nsc(C(=O)NCc3cc(C(F)(F)F)ccc3Cl)c2Cl)cc1` [I-1246], the LogP is 4.37[a].

`CCOc1ccccc1CNC(=O)c1snc(NCc2ccc(OC)cc2)c1Cl` [I-1247]: the LogP is 4.08[a].

As for `COc1ccc(CNc2nsc(C(=O)NC3Cc4ccccc4C3)c2Cl)cc1` [I-1248], the LogP is 3.90[a].

For the compound `COc1ccc(CNc2nsc(C(=O)NCc3ccc(Cl)c(C(F)(F)F)c3)c2Cl)cc1` [I-1249], the LogP is 4.34[a].

As to `COc1ccc(CNc2nsc(C(=O)NC(C)C3(Cl)CC3)c2Cl)cc1` (centres unmarked) [I-1250], the LogP is 3.90[a].

For the compound `COc1ccc(CNc2nsc(C(=O)NC(c3cncnc3)C(C)C)c2Cl)cc1` (centres unmarked) [I-1251], the LogP was 2.73[a].

As for `COc1ccc(CNc2nsc(C(=O)NC3CCC(C(C)(C)C)CC3)c2Cl)cc1` (centres unmarked) [I-1252], the LogP was 5.51[a].

Take `COc1ccc(CNc2nsc(C(=O)NC(C)c3cccnc3)c2Cl)cc1` (centres unmarked) [I-1253]: the LogP is 1.63[a].

On to `CCC1(C)CC(NC(=O)c2snc(NCc3ccc(OC)cc3)c2Cl)CC(C)(C)C1` (centres unmarked) [I-1254], for which the LogP is 5.72[a].

Turning to `COc1ccc(CNc2nsc(C(=O)NCCc3ccccn3)c2Cl)cc1` [I-1255], the LogP is 1.52[a].

On to `COc1ccc(CNc2nsc(C(=O)NC(C)c3ccc(Cl)cc3Cl)c2Cl)cc1` (centres unmarked) [I-1256], for which the LogP is 4.61[a].

As to `COc1ccc(CNc2nsc(C(=O)NCc3cn(C(C)C)nc3C)c2Cl)cc1` [I-1257], the LogP was 2.82[a].

`COc1ccc(CNc2nsc(C(=O)NCc3cnn(CC(F)(F)F)c3)c2Cl)cc1` [I-1258]: the LogP is 2.84[a].

In the case of `CCCCCn1cc(CNC(=O)c2snc(NCc3ccc(OC)cc3)c2Cl)c(C)n1` [I-1259], the LogP was 3.57[a].

In the case of `CCCCn1cc(CNC(=O)c2snc(NCc3ccc(OC)cc3)c2Cl)c(C)n1` [I-1260], the LogP is 3.21[a].

For `COc1ccc(CNc2nsc(C(=O)NC(C)c3ccsc3)c2Cl)cc1` (centres unmarked) [I-1261], the LogP was 3.61[a].

As to `COc1ccc(CNc2nsc(C(=O)NCc3cnn(CC(C)C)c3C)c2Cl)cc1` [I-1262], the LogP was 3.21[a].

As to `COc1ccc(CNc2nsc(C(=O)NCCCn3ccnc3C)c2Cl)cc1` [I-1263], the LogP is 1.44[a].

Turning to `COc1ccc(CNc2nsc(C(=O)NCc3cc(F)cc(C(F)(F)F)c3)c2Cl)cc1` [I-1264], the LogP is 4.15[a].

As for `CCC(NC(=O)c1snc(NCc2ccc(OC)cc2)c1Cl)c1ccccc1` (centres unmarked) [I-1265], the LogP was 4.03[a].

As for `COc1ccc(CNc2nsc(C(=O)NCCC3=CCCCC3)c2Cl)cc1` [I-1266], the LogP is 4.44[a].

In the case of `COc1ccc(CNc2nsc(C(=O)NC(C)(C)c3nc(C)cs3)c2Cl)cc1` [I-1267], the LogP is 3.63[a].

As for `COc1ccc(CNc2nsc(C(=O)NCc3cccc4ccccc34)c2Cl)cc1` [I-1268], the LogP was 4.11[a].

In the case of `COc1ccc(CNc2nsc(C(=O)NCCc3cccs3)c2Cl)cc1` [I-1269], the LogP is 3.55[a].

Consider `COc1ccc(CNc2nsc(C(=O)NCc3noc(C)n3)c2Cl)cc1` [I-1270], for which the LogP is 2.47[a].

For `COc1ccc(CNc2nsc(C(=O)NCc3ncccc3OC)c2Cl)cc1` [I-1271], the LogP is 2.70[a].

`COc1ccc(CNc2nsc(C(=O)NCc3ccc(F)c(C(F)(F)F)c3)c2Cl)cc1` [I-1272]: the LogP is 4.06[a].
